In assay [1] the target is T1, Ct-FDH (carboxy-terminal ALDH domain of 10-formyltetrahydrofolate dehydrogenase, Aldh1l1) (Rattus norvegicus, UniProt P28037).
T1 sequence (P28037 400-902): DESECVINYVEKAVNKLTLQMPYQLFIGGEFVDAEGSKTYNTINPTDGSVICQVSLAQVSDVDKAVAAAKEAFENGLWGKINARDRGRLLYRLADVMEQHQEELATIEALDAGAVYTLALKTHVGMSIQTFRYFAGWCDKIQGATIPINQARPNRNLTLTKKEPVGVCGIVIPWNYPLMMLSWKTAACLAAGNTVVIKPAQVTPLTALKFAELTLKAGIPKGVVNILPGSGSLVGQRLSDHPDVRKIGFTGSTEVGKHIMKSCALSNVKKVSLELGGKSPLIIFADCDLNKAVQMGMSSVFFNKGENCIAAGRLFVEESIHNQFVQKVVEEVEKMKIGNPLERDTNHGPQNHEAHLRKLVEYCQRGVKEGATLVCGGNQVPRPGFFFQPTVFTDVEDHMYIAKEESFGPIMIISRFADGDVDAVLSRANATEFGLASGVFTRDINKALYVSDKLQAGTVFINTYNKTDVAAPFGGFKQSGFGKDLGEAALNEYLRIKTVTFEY
Briefly: quenching of tryptophan fluorescence. It counts as binding.

In assay [2] the target is T2, Ct-FDH (carboxy-terminal ALDH domain of 10-formyltetrahydrofolate dehydrogenase, Aldh1l1) (Rattus norvegicus, UniProt P28037, C707S).
T2 sequence (P28037 400-902 C707S): T1 sequence (P28037 400-902) with C308S
Briefly: quenching of tryptophan fluorescence. It counts as binding.

Substitutions are numbered along the chain they refer to.

2 compounds from PMC3602205 (Chemico-biological interactions, 2013) can be followed below.

Broadly, the Kd is the free concentration of one partner at which half of the binding sites on the other are occupied at equilibrium, for simple one-to-one binding. Low readings indicate a tighter complex, high ones a looser complex. As for `NC(=S)c1ccc[n+]([C@@H]2O[C@H](COP(=O)(O)OP(=O)(O)OC[C@H]3O[C@@H](n4cnc5c(N)ncnc54)[C@H](OP(=O)(O)O)[C@@H]3O)[C@@H](O)[C@H]2O)c1` [thio-NADP^+], the Kd in assay [1] stood at 17 ± 0.8 µM.

For `NC(=O)c1ccc[n+]([C@@H]2O[C@H](COP(=O)(O)OP(=O)(O)OC[C@H]3O[C@@H](n4cnc5c(N)ncnc54)[C@H](OP(=O)(O)O)[C@@H]3O)[C@@H](O)[C@H]2O)c1` [NADP^+], the Kd in assay [2] worked out at 11 ± 1.5 µM.
